US20040197838A1, “Phosphorylated histone h2b as apoptosis marker” (priority 2001, published 2004)

Legend:
HL-60 cells [1] = assay: Caspase 3 inhibitor pre-incubation before VP16, Western analysis of Mst1 cleavage and H2B Ser14 phosphorylation; type: cell-based, human; details: then VP16 for 4 hours
Procedure: (§1) Western blot analysis is performed as described in (Briggs et al., (2001) Genes Dev 15, 3286-3295) 1:1000 of α-phos (S14) H2B, 1:2500 of α-N-Mst1, 1:400 of α-myc (9E10 from Santa Cruz), 1:800 of α-PARP (UBI), 1:1000 of α-phos H2A.X (UBI), and 1:5000 of ax-Acetyl H4 primary antibodies were used. HRP-conjugated rabbit secondary (Amersham Pharmacia) was used at 1:5000. For chemiluminescence, the ECL plus kit (Amersham Pharmacia) was used for detection.
If H2B (Ser14) phosphorylation is dependent on the cleavage of Mst1, this histone modification should be sensitive to documented caspase 3 inhibitors such as the DEVD peptide. To test this prediction, HL-60 cells were pre-incubated with varying amounts of z-DEVD-fmk (Trevigen) before subsequent treatment with VP16 for 4 hours. Cell extracts were then harvested for western analysis. […] Accordingly, H2B is likely phosphorylated in vivo at Ser14 by the caspase 3-generated form of Mst1.

HL-60 cells [2] = assay: Apoptotic DNA fragmentation (DNA ladder) after VP-16 treatment; type: cell-based, human
Procedure: Genomic DNA was harvested by lysing the cell pellet in 10 mM Tris pH 9.0, 1 mM EDTA, 10 mM NaCl, 1% w/v SDS, 1 mg/mL of proteinase K at 50° C. for 4-5 hours. To remove proteins, a phenol/chloroform extraction was performed and then the DNA was precipitated in 0.3 M sodium acetate and 70% Ethanol. After centrifugation, the pellet was resuspended in TE and the RNA was digested by adding 1 mg/mL Rnase A for 1 hour at room temp. DNA was separated in 1.2% agarose TAE gel.
(§2) Initially, HL-60 (human leukemia cell line) cells were treated with etoposide (VP-16) to induce apoptosis. After treatment for various length of time, histones were isolated by acid extraction and examined by Western blot using the S14P antibody. […] To confirm the induction of apoptosis, soluble DNA was extracted from parallel samples at identical time points. The appearance of a ‘DNA ladder’, indicative of apoptotic DNA fragmentation at 4 hour post treatment, coincides precisely with the onset of H2B Ser14 phosphorylation. Furthermore, an increase of H2B S14 phosphorylation was observed that correlates with the exposure time to the etoposide.

HL-60 cells [3] = assay: Western blots of histones from HL-60 cells after cytotoxic agent treatment; type: cell-based, human; details: for Levels of H2B S14 Phons Induction: etoposide 20 ug/mL, anisomycin 25 ng/mL, anti-Fas 15 ng/mL
Procedure: (§3) Cell culture, drug and UV treatment, and harvesting for protein and DNA: HL-60 cells were cultured in RPMI with 10% FBS whereas 293T, HeLa, HepG2, and IMR90 were grown in DMEM with 10% FBS. Etoposide, anisomycin, […] and anti-Fas were purchased from Sigma. To induce apoptosis, drugs were used in these concentration 20 ug/mL for etoposide, 25 ng/mL anisomycin and 15 ng/mL anti-Fas. For UV induction of apoptosis, 40-100 J/m^2 was used (Biorad GS Gene Linker UV chamber). After induction of apoptosis the growth media was changed and harvested at various times afterward. Control cells were either treated with DMSO or mock-treated.
(§4) After the desired treatment, cells were subjected to any of the following: resuspension in SDS-lysis buffer (Laemmli's sample buffer), nuclear extraction, acid extraction for histones, or genomic DNA extraction. Nuclei were isolated by lysis in detergent and low speed spin as described in Strahl et al., (2001) Curr Biol 11, 996-1000. These nuclei can either be salt extracted for nuclear proteins (see below) or acid extracted in 0.4 N H2SO4. After incubating on ice for 2-4 hours, high speed centrifugation is done to remove the insoluble pellet. 5.4% of Percholic acid was added to the supernatant and the precipitated histones were resuspended in water.
as §1, §2
(§5) After Cytotoxic agent treatments, cells were harvested. The level of H2B S14 phosphorylation is determined by Western blots using ePhos (S14) H2B.

HepG2 = assay: Western blot for H2B S14 phosphorylation after cytotoxic agent treatment; type: cell-based
Procedure: as §3
as §4, with “5.4% of Percholic acid was added to the supernatant and the precipitated histones were resuspended in water.” left out
as §5

[4] = target: histone H2B (substrate of the in vitro kinase reactions)

z-DEVD-fmk
H2B phosphorylation (HL-60 cells [1]; 20 mM inhibitor): only a modest decrease
Proportion of truncated Mst1 over full length Mst1 (HL-60 cells [1]; 20 mM inhibitor): only a modest decrease
H2B Ser14 phosphorylation (HL-60 cells [1]; 200 mM inhibitor): inhibited
Mst1 cleavage (HL-60 cells [1]; 200 mM inhibitor): inhibited

COc1cc([C@@H]2c3cc4c(cc3[C@@H](O[C@@H]3O[C@@H]5CO[C@@H](C)O[C@H]5[C@H](O)[C@H]3O)[C@H]3COC(=O)[C@H]23)OCO4)cc(OC)c1O [Etoposide (VP16), Etoposide]
Time post treatment of appearance of DNA ladder (apoptotic DNA fragmentation) (HL-60 cells [2]): 4 h
Time of H2A.X phosphorylation after treatment (HL-60 cells [3]; Western blot): one
Time post treatment at which H2B phosphorylation signal is strongly enhanced (HL-60 cells [3]; Western blot with S14P antibody): around 4 hours
Levels of H2B S14 Phons Induction (HL-60 cells [3]; Western blot): High

COc1ccc(C[C@H]2NC[C@H](O)[C@H]2OC(C)=O)cc1 [Anisomycin]
Levels of H2B S14 Phons Induction (HL-60 cells [3]; Western blot): High

COS(C)(=O)=O [MMS]
Levels of H2B S14 Phons Induction (HepG2): Medium

B1: myc-tagged full length Mst1 (protein)
chain: METVQLRNPPRRQLKKLDEDSLTKQPEEVFDVLEKLGEGSYGSVYKAIHKETGQIVAIKQVPVESDLQEIIKEISIMQQCDSPHVVKYYGSYFKNTDLWIVMEYCGAGSVSDIIRLRNKTLTEDEIATILQSTLKGLEYLHFMRKIHRDIKAGNILLNTEGHAKLADFGVAGQLTDTMAKRNTVIGTPFWMAPEVIQEIGYNCVADIWSLGITAIEMAEGKPPYADIHPMRAIFMIPTNPPPTFRKPELWSDNFTDFVKQCLVKSPEQRATATQLLQHPFVRSAKGVSILRDLINEAMDVKLKRQESQQREVDQDDEENSEEDEMDSGTMVRAVGDEMGTVRVASTMTDGANTMIEHDDTLPSQLGTMVINAEDEEEEGTMKRRDETMQPAKPSFLEYFEQKEKENQINSFGKSVPGPLKNSSDWKIPQDGDYEFLKSWTVEDLQKRLLALDPMMEQEIEEIRQKYQSKRQPILDAIEAKKRRQQNF
IP kinase reaction with non-radioactive ATP, Western blot with the S14P antibody [4]: both Mst1 FL and DC phosphorylate H2B at Ser14 as detected by the S14P antibody
in vitro kinase assay on myc immunoprecipitates, with g(32P)-ATP or cold ATP [4]: Strong phosphorylation of H2B was detected with both full length and DC Mst1

B2: myc-tagged kinase dead Mst1 (protein)
chain: METVQLRNPPRRQLKKLDEDSLTKQPEEVFDVLEKLGEGSYGSVYKAIHKETGQIVAIRQVPVESDLQEIIKEISIMQQCDSPHVVKYYGSYFKNTDLWIVMEYCGAGSVSDIIRLRNKTLTEDEIATILQSTLKGLEYLHFMRKIHRDIKAGNILLNTEGHAKLADFGVAGQLTDTMAKRNTVIGTPFWMAPEVIQEIGYNCVADIWSLGITAIEMAEGKPPYADIHPMRAIFMIPTNPPPTFRKPELWSDNFTDFVKQCLVKSPEQRATATQLLQHPFVRSAKGVSILRDLINEAMDVKLKRQESQQREVDQDDEENSEEDEMDSGTMVRAVGDEMGTVRVASTMTDGANTMIEHDDTLPSQLGTMVINAEDEEEEGTMKRRDETMQPAKPSFLEYFEQKEKENQINSFGKSVPGPLKNSSDWKIPQDGDYEFLKSWTVEDLQKRLLALDPMMEQEIEEIRQKYQSKRQPILDAIEAKKRRQQNF
in vitro kinase assay on myc immunoprecipitates, with g(32P)-ATP or cold ATP [4]: the kinase dead form Mst1 (which contains a single point mutation) did not phosphorylate H2B

B3: myc-tagged C-terminal truncated form of Mst1 (protein)
chain: METVQLRNPPRRQLKKLDEDSLTKQPEEVFDVLEKLGEGSYGSVYKAIHKETGQIVAIKQVPVESDLQEIIKEISIMQQCDSPHVVKYYGSYFKNTDLWIVMEYCGAGSVSDIIRLRNKTLTEDEIATILQSTLKGLEYLHFMRKIHRDIKAGNILLNTEGHAKLADFGVAGQLTDTMAKRNTVIGTPFWMAPEVIQEIGYNCVADIWSLGITAIEMAEGKPPYADIHPMRAIFMIPTNPPPTFRKPELWSDNFTDFVKQCLVKSPEQRATATQLLQHPFVRSAKGVSILRDLINEAMDVKLKRQESQQREVDQDDEENSEEDEMD
IP kinase reaction with non-radioactive ATP, Western blot with the S14P antibody [4]: both Mst1 FL and DC phosphorylate H2B at Ser14 as detected by the S14P antibody
in vitro kinase assay on myc immunoprecipitates, with g(32P)-ATP or cold ATP [4]: Strong phosphorylation of H2B was detected with both full length and DC Mst1
